This note sets out measurements from patent US10519134B2, “Pyrazole compounds and methods of making and using same” (Lundbeck La Jolla Research Center, Inc., priority 2015, dated 2019).

Test [1] deals with T1, FAAH (Mus musculus, UniProt O08914).
T1 construct: Proteomes (mouse brain membrane fraction or cell lysates); from tissue; host or cells: mouse brain membrane fraction (or cell lysates)
T1 sequence (O08914 1-579): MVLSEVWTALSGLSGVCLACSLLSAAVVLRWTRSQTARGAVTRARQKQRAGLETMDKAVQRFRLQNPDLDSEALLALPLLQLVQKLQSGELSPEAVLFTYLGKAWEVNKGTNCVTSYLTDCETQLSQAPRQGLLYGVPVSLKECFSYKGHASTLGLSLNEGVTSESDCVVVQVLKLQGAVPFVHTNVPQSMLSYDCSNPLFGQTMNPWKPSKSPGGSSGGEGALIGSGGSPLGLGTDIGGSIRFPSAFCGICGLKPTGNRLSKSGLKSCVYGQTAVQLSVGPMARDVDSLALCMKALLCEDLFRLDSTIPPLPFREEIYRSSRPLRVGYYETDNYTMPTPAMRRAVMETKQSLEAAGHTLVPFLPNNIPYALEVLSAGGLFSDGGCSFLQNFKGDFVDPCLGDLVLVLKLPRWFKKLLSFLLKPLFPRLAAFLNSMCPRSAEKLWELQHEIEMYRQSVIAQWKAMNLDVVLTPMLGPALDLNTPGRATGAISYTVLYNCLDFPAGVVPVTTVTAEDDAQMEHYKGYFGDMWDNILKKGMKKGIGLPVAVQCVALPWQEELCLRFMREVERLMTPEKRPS
In words: In vitro competitive activity-based protein profiling (mouse), FAAH gel band. It counts as biochemical. As to conditions: for inhibition at 1 µM: read-out: FAAH % inh. 1 μM; for IC50: mouse. Put shortly:
(§1)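 Competitive ABPP: inhibitors at varying concentrations were given 30 min at 37 °C with mouse brain membranes or cell lysates (1.0 mg/mL total protein) before 30 min labelling by FP-Rh or HT-01 (stock 50 μM in DMSO). Residual hydrolase activity read as in-gel fluorescence of MAGL and FAAH bands.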

The target of test [2] is T2, MAGL (Mus musculus, UniProt O35678).
T2 construct: Proteomes (mouse brain membrane fraction or cell lysates); from tissue; host or cells: mouse brain membrane fraction (or cell lysates)
T2 sequence (O35678 1-303): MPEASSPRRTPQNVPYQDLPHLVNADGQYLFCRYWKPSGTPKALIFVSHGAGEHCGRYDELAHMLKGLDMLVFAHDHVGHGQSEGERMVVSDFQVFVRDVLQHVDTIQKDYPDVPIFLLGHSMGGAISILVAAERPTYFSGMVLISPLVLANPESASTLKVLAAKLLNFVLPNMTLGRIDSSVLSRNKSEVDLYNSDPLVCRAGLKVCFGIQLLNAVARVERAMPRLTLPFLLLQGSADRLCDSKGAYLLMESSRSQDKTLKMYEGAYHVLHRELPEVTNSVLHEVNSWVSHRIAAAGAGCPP
Briefly: In vitro competitive activity-based protein profiling (mouse), MAGL gel band. It counts as biochemical. Conditions: for inhibition at 1 µM: read-out: MAGL % inh. 1 μM; for IC50: mouse. Put shortly:
as §1

`CS(=O)(=O)Nc1ccn(C(=O)N2CCN(Cc3cc(N4CCOCC4)cc(C(F)(F)F)c3)CC2)n1` [Example 155, N-(1-(4-(3-morpholino-5-(trifluoromethyl)benzyl)piperazine-1-carbonyl)-1H-pyrazol-3-yl) methanesulfonamide]: the values for the inhibition at 1 µM in test [1] and in test [2] were 0 to 25% and at least 75%, respectively.
On the same counts, the results for `CS(=O)(=O)Nc1ccn(C(=O)N2CCN(Cc3ccc(N4CCOCC4)cc3C(F)(F)F)CC2)n1` [Example 157, N-(1-(4-(4-morpholino-2-(trifluoromethyl)benzyl)piperazine-1-carbonyl)-1H-pyrazol-3-yl) methanesulfonamide] are 0 to 25% and 25 to 50%.
Turning to `CS(=O)(=O)Nc1ccn(C(=O)N2CCN(Cc3ccc(-c4ccccc4)cc3Cl)CC2)n1` [Example 158, N-(1-(4-((3-chloro-[1,1′-biphenyl]-4-yl)methyl)piperazine-1-carbonyl)-1H-pyrazol-3-yl) methanesulfonamide], in test [1], the IC50 is 100 to 1000 nM and the inhibition at 1 µM is at least 75%. In addition, in test [2], the IC50 was at most 100 nM and the inhibition at 1 µM is at least 75%.
As to `CS(=O)(=O)Nc1ccn(C(=O)N2CCC3(CCCN3Cc3ccc(C(F)(F)F)c(N4CCCC4)c3)CC2)n1` [Example 160, N-(1-(1-(3-(pyrrolidin-1-yl)-4-(trifluoromethyl)benzyl)-1,8-diazaspiro[4.5]decane-8-carbonyl)-1H-pyrazol-3-yl) methanesulfonamide], the inhibition at 1 µM was 0 to 25% in test [1] and at least 75% in test [2].
On the same counts, the results for `CS(=O)(=O)Nc1ccn(C(=O)N2CCC3(CCCN3Cc3cc(N4CCOCC4)cc(C(F)(F)F)c3)CC2)n1` [Example 162, N-(1-(1-(3-morpholino-5-(trifluoromethyl)benzyl)-1,8-diazaspiro[4.5]decane-8-carbonyl)-1H-pyrazol-3-yl) methanesulfonamide] are 0 to 25% and at least 75%.
For `CS(=O)(=O)Nc1ccn(C(=O)N2CCC3(CCCN3Cc3cc(N4CCCC4)cc(C(F)(F)F)c3)CC2)n1` [Example 163, N-(1-(1-(3-(pyrrolidin-1-yl)-5-(trifluoromethyl)benzyl)-1,8-diazaspiro[4.5]decane-8-carbonyl)-1H-pyrazol-3-yl) methanesulfonamide], the inhibition at 1 µM is 0 to 25% in test [1] and at least 75% in test [2].
On the same counts, the results for `CS(=O)(=O)Nc1ccn(C(=O)N2CCC3(CCCN3Cc3ccc(N4CCOCC4)cc3C(F)(F)F)CC2)n1` [Example 164, N-(1-(1-(4-morpholino-2-(trifluoromethyl)benzyl)-1,8-diazaspiro[4.5]decane-8-carbonyl)-1H-pyrazol-3-yl)methanesulfonamide] are 0 to 25% and 0 to 25%.
For `CS(=O)(=O)Nc1ccn(C(=O)N2CCN(Cc3ccc(C(F)(F)F)c(N4CCOCC4)c3)CC2)n1` [Example 168, N-(1-(4-(3-morpholino-4-(trifluoromethyl)benzyl)piperazine-1-carbonyl)-1H-pyrazol-3-yl) methanesulfonamide], in that order: 0 to 25% and at least 75%.
Turning to `CS(=O)(=O)Nc1ccn(C(=O)N2CCN(Cc3ccc(N4CCC(C(=O)O)CC4)c(C(F)(F)F)c3)CC2)n1` [Example 169, 1-(4-((4-(3-(methylsulfonamido)-1H-pyrazole-1-carbonyl)piperazin-1-yl)methyl)-2-(trifluoromethyl)phenyl)piperidine-4-carboxylic acid], the inhibition at 1 µM in test [1] and in test [2] was 0 to 25% each time.
In the case of `CS(=O)(=O)Nc1ccn(C(=O)N2CCN(Cc3ccc(N4CCOCC4)c(Cl)c3)CC2)n1` [Example 170, N-(1-(4-(3-chloro-4-morpholinobenzyl)piperazine-1-carbonyl)-1H-pyrazol-3-yl) methanesulfonamide], the inhibition at 1 µM in test [1] was 0 to 25%; in test [2], 25 to 50%.
In the case of `CS(=O)(=O)Nc1ccn(C(=O)N2CCN(Cc3cc(Cl)cc(C(F)(F)F)c3)CC2)n1` [Example 176, N-(1-(4-(3-chloro-5-(trifluoromethyl)benzyl)piperazine-1-carbonyl)-1H-pyrazol-3-yl) methanesulfonamide], the results for the inhibition at 1 µM in test [1] and in test [2] were 0 to 25% and at least 75%, respectively.
On the same counts, the results for `CS(=O)(=O)Nc1ccn(C(=O)N2CCN(Cc3cc(C(F)(F)F)cc(C(F)(F)F)c3)CC2)n1` [Example 177, N-(1-(4-(3,5-bis(trifluoromethyl)benzyl)piperazine-1-carbonyl)-1H-pyrazol-3-yl) methanesulfonamide] are 0 to 25% and at least 75%.
With `CS(=O)(=O)Nc1ccn(C(=O)N2CCN(Cc3cc(Cl)ccc3N3CCCC3)CC2)n1` [Example 179, N-(1-(4-(5-chloro-2-(pyrrolidin-1-yl)benzyl)piperazine-1-carbonyl)-1H-pyrazol-3-yl) methanesulfonamide], the figures for the inhibition at 1 µM in test [1] and in test [2] were 0 to 25% and at least 75%, respectively.
As for `CS(=O)(=O)Nc1ccn(C(=O)N2CCN(Cc3cc(N4CCOCC4)ccc3C(F)(F)F)CC2)n1` [Example 181, N-(1-(4-(5-morpholino-2-(trifluoromethyl)benzyl)piperazine-1-carbonyl)-1H-pyrazol-3-yl) methanesulfonamide], the values for the inhibition at 1 µM in test [1] and in test [2] were 0 to 25% and 50 to 75%, respectively.
On to `CS(=O)(=O)Nc1ccn(C(=O)N2CCN(C(c3ccc(Cl)cc3)c3ccc(Cl)cc3)CC2)n1` [Example 182, N-(1-(4-(bis(4-chlorophenyl)methyl)piperazine-1-carbonyl)-1H-pyrazol-3-yl) methanesulfonamide], for which the inhibition at 1 µM in test [1] and in test [2] was 0 to 25% in each case.
`CS(=O)(=O)Nc1ccn(C(=O)N2CCN(Cc3ccc(-c4ccccc4)cc3OCc3ccccc3)CC2)n1` [Example 183, N-(1-(4-((3-(benzyloxy)-[1,1′-biphenyl]-4-yl)methyl)piperine-1-carbonyl)-1H-pyrazol-3-yl) methanesulfonamide]: the inhibition at 1 µM is 0 to 25% in test [1] and at least 75% in test [2].
In the case of `Cn1ncc2cc(CN3CCN(C(=O)n4ccc(NS(C)(=O)=O)n4)CC3)ccc21` [Example 184, N-(1-(4-((1-methyl-1H-indazol-5-yl)methyl)piperazine-1-carbonyl)-1H-pyrazol-3-yl) methanesulfonamide], the inhibition at 1 µM in test [1] lay in the range of 0 to 25%; in test [2], 25 to 50%.
Take `CC(=O)Nc1ccn(C(=O)N2CCC3(CCCN3Cc3ccc4c(ccn4C)c3)CC2)n1` [Example 185, N-(1-(1-((1-methyl-1H-indol-5-yl)methyl)-1,8-diazaspiro[4.5]decane-8-carbonyl)-1H-pyrazol-3-yl)acetamide]: in test [1], the IC50 lay within 1000 to 10000 nM and the inhibition at 1 µM was 0 to 25%. Moreover, in test [2], the IC50 lay within 1000 to 10000 nM and the inhibition at 1 µM was at least 75%.
`CS(=O)(=O)Nc1ccn(C(=O)N2CCN(Cc3cc(N4CCCC4)ccc3C(F)(F)F)CC2)n1` [Example 195, N-(1-(4-(5-(pyrrolidin-1-yl)-2-(trifluoromethyl)benzyl)piperazine-1-carbonyl)-1H-pyrazol-3-yl) methanesulfonamide]: the values for the inhibition at 1 µM in test [1] and in test [2] were 0 to 25% and at least 75%, respectively.

The IC50 is the concentration at which inhibition is half-maximal.
